Patent US6906205B2, “Spiro and dispiro 1,2,4-trioxolane antimalarials” (Medicines for Malaria Venture MMV, priority 2002, dated 2005)
≈ marks a conversion by molar mass, not a printed value.

Tests used:
[1] = test system: P. falciparum K1 strain (Thailand resistant to chloroquine); assay: semiautomated microdilution assay, [3H]-hypoxanthine incorporation, K1 strain; type: cell-based, Plasmodium falciparum; conditions: K1 strain, 72 h incubation
Outline: (§1)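 Compounds were tested against intraerythrocytic parasites taken from asynchronous stock cultures, using semiautomated microdilution. IC50 values were estimated by logit regression analysis.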

[2] = test system: P. falciparum NF54 strain (sensitive to standard antimalarials); assay: semiautomated microdilution assay, [3H]-hypoxanthine incorporation, NF54 strain; type: cell-based, Plasmodium falciparum; conditions: NF54 strain, 72 h incubation
Outline: as §1

[3] = test system: ANKA strain of P. berghei; assay: single dose STI in vivo screen in infected mice; design: species or system Plasmodium berghei; conditions: for Activity (%) po / Activity (%) sc / Activity (%) SSVpo: percent reduction in parasitemia day 3 post-infection, mice; for Activity (%) po / Survival (days) po: single 10 mg/kg po in 3% ethanol and 7% Tween 80; for Activity (%) sc / Survival (days) sc: single 10 mg/kg sc in 3% ethanol and 7% Tween 80; for Activity (%) SSVpo: single po dose in standard suspending vehicle (SSV); for Survival (days) po / Survival (days) sc / Survival (days) SSVpo: untreated control 5.6 ± 0.3; for Survival (days) SSVpo: single po dose in SSV
Outline: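 Groups of 3-5 Moro SPF or NMRI mice infected with the ANKA strain of P. berghei received a single dose of trioxolane on day one post-infection. The compound was given in 3% ethanol and 7% Tween 80 or in SSV (0.5% w/v CMC, 0.5% v/v benzyl alcohol, 0.4% v/v Tween 80, 0.9% w/v sodium chloride in water). Antimalarial activity was scored as percent reduction in parasitemia on day three and as survival time versus untreated controls. Survival to day 30 counted as cure.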

| SMILES | IC50 (ng/ml) K1 [1] | IC50 (ng/ml) NF54 [2] | Activity (%) po [3] | Activity (%) sc [3] | Activity (%) SSVpo [3] | Survival (days) po [3] | Survival (days) sc [3] | Survival (days) SSVpo [3] |
| --- | --- | --- | --- | --- | --- | --- | --- | --- |
| c1cnn(C[C@H]2CC[C@]3(CC2)OOC2(O3)C3CC4CC(C3)CC2C4)c1 (stereo partly drawn) [OZ211] | 1.0 ng/mL (≈ 2.9 nM) | 1.2 ng/mL (≈ 3.48 nM) | 82% | 99.90% | 78% | 8.0 days | 8.7 days | 7.3 days |
| O=C1c2ccccc2S(=O)(=O)N1C[C@H]1CC[C@]2(CC1)OOC1(O2)C2CC3CC(C2)CC1C3 (stereo partly drawn) [OZ212] | 2.7 ng/mL (≈ 5.88 nM) | 2.9 ng/mL (≈ 6.31 nM) | 66% | 59% | 25% | 6.7 days | 8.0 days | 6.7 days |
| CONC(=O)C[C@H]1CC[C@]2(CC1)OOC1(O2)C2CC3CC(C2)CC1C3 (stereo partly drawn) [OZ213] | 2.3 ng/mL (≈ 6.54 nM) | 2.8 ng/mL (≈ 7.97 nM) | 83% | 85% | 74% | 8.0/8.0/8.0 days | 8.0/8.0/8.0 days | 8.0/8.0/8.0 days |
| O=C(O)c1ccc(C[C@H]2CC[C@]3(CC2)OOC2(O3)C3CC4CC(C3)CC2C4)cc1 (stereo partly drawn) [OZ214] | >10/>10 ng/ml | >10/>10 ng/ml | 44% | 65% | 54% | 6.3 days | 7.7 days | 7.3 days |
| O=C1c2ccccc2C(=O)N1CC[C@H]1CC[C@]2(CC1)OOC1(O2)C2CC3CC(C2)CC1C3 (stereo partly drawn) [OZ215] | 6.4 ng/mL (≈ 14.6 nM) | 7.3 ng/mL (≈ 16.7 nM) | 96% | 39% | 25% | 9.7 days | 7.0 days | 6.3 days |
| c1cc(CN2CCC3(CC2)OOC2(O3)C3CC4CC(C3)CC2C4)ccn1 (stereo not drawn) [OZ216] | 0.40 ng/mL (≈ 1.12 nM) | 0.67 ng/mL (≈ 1.88 nM) | 62% | 99.02% | 69% | 6.3 days | 11.0 days | 7.7 days |
| O=C(C[C@H]1CC[C@]2(CC1)OOC1(O2)C2CC3CC(C2)CC1C3)Nc1nccs1 (stereo partly drawn) [OZ217] | 2.0/2.0 ng/ml | 2.0/2.0 ng/ml | 67% | 98% | 8% | 7.0 days | 8.0 days | 6.0 days |
| O=C(C[C@H]1CC[C@]2(CC1)OOC1(O2)C2CC3CC(C2)CC1C3)N1CCCCC1 (stereo partly drawn) [OZ218] | 2.0 ng/mL (≈ 5.13 nM) | 3.0 ng/mL (≈ 7.7 nM) | 98% | 99.68% | 99.30% | 10.0 days | 9.0 days | 14.3 days |
| c1ccc(CN2CCC3(CC2)OOC2(O3)C3CC4CC(C3)CC2C4)cc1 (stereo not drawn) [OZ220] | 6.9 ng/mL (≈ 19.4 nM) | 4.9 ng/mL (≈ 13.8 nM) | 40% | 99.95% | 0% | 6.0 days | 10.0 days | 5.3 days |
| NC(=O)N[C@H]1CC[C@]2(CC1)OOC1(O2)C2CC3CC(C2)CC1C3 (stereo partly drawn) [OZ221] | >10/>10 ng/ml | >10/>10 ng/ml | 80% | 97% | 87% | 6.3 days | 8.0 days | 7.0 days |
| CC(C)(C)NC(=O)N[C@H]1CC[C@]2(CC1)OOC1(O2)C2CC3CC(C2)CC1C3 (stereo partly drawn) [OZ222] | 3.9 ng/mL (≈ 10.3 nM) | 6.3 ng/mL (≈ 16.6 nM) | 87% | 99.76% | 75% | 7.7 days | 10.0 days | 7.0 days |
| COC(=O)c1cncn1C[C@H]1CC[C@]2(CC1)OOC1(O2)C2CC3CC(C2)CC1C3 (stereo partly drawn) [OZ223] | 4.0 ng/mL (≈ 9.94 nM) | > 10 ng/mL | 89% | 99.57% | 79% | 7.3 days | 12.0 days | 6.3 days |
